Source: ChEMBL document CHEMBL3227932, “Conformations, DNA binding parameters, and antileukemic activity of certain cytotoxic protoberberine alkaloids” (J Med Chem, 1979)
≈ marks a conversion by molar mass, not a printed value.

Legend:
KB = test: Cytotoxicity against human KB cells; format: functional; settings: read-out: ED50 (the source's name)
P388 [1] = test: Antitumor activity against mouse P388 cells allografted in mouse at 12.5 mg/kg; format: functional
P388 [2] = test: Antitumor activity against mouse P388 cells allografted in mouse at 6.25 mg/kg; format: functional
P388 [3] = test: Antitumor activity against mouse P388 cells allografted in mouse at 3.13 mg/kg; format: functional
Mus musculus [4] = test: Toxicity in mouse P388 cells allografted mouse at 400 mg/kg; format: organism-based; set-up: dose 400 mg/kg; settings: in vivo
Mus musculus [5] = test: Toxicity in mouse P388 cells allografted mouse at 200 mg/kg; format: organism-based; set-up: dose 200 mg/kg; settings: in vivo
Mus musculus [6] = test: Toxicity in mouse P388 cells allografted mouse at 100 mg/kg; format: organism-based; set-up: dose 100 mg/kg; settings: in vivo
Mus musculus [7] = test: Toxicity in mouse P388 cells allografted mouse at 50 mg/kg; format: organism-based; set-up: dose 50 mg/kg; settings: in vivo
Mus musculus [8] = test: Toxicity in mouse P388 cells allografted mouse at 12.5 mg/kg; format: organism-based; set-up: dose 12.5 mg/kg; settings: in vivo
Mus musculus [9] = test: Toxicity in mouse P388 cells allografted mouse at 6.25 mg/kg; format: organism-based; set-up: dose 6.25 mg/kg; settings: in vivo
Mus musculus [10] = test: Toxicity in mouse P388 cells allografted mouse at 3.13 mg/kg; format: organism-based; set-up: dose 3.13 mg/kg; settings: in vivo
P388 [11] = test: Antitumor activity against mouse P388 cells allografted in mouse at 25 mg/kg; format: functional
Mus musculus [12] = test: Toxicity in mouse P388 cells allografted mouse at 25 mg/kg; format: organism-based; set-up: dose 25 mg/kg; settings: in vivo
P388 [13] = test: Antitumor activity against mouse P388 cells allografted in mouse at 200 mg/kg; format: functional
P388 [14] = test: Antitumor activity against mouse P388 cells allografted in mouse at 400 mg/kg; format: functional
P388 [15] = test: Antitumor activity against mouse P388 cells allografted in mouse at 100 mg/kg; format: functional
P388 [16] = test: Antitumor activity against mouse P388 cells allografted in mouse at 50 mg/kg; format: functional

Row | Structure (SMILES) | EC50 (KB) [µg/mL] | T/C (P388 [1]) | T/C (P388 [2]) | Activity (Mus musculus [4]) | Activity (Mus musculus [5]) | Activity (Mus musculus [6]) | Activity (Mus musculus [7]) | Activity (Mus musculus [8]) | Activity (Mus musculus [9]) | other results
1 | COc1cc2c(cc1OC)-c1c(C)c3ccc(OC)c(OC)c3c[n+]1CC2.[Cl-] | 4.76 | 107 | 102 | Toxic | Toxic | Toxic | Toxic | Non-toxic | Non-toxic | T/C (P388 [3]): 105; Activity (Mus musculus [10]): Non-toxic
2 | COc1cc2c[n+]3c(c(C)c2cc1OC)-c1cc2c(cc1CC3)OCO2.[I-] | 2.98 | 113 | 106 | Toxic | Toxic | Toxic |  | Non-toxic | Non-toxic | T/C (P388 [11]): 116; Activity (Mus musculus [12]): Non-toxic
3 | COc1cc2c(cc1OC)[C@H](CO)[C@H]1c3cc4c(cc3CCN1C2)OCO4 (relative stereo) | > 100 |  |  |  |  |  |  |  |  | 
4 | COc1cc2c(cc1OC)[C@@H](CO)[C@H]1c3cc4c(cc3CCN1C2)OCO4 (relative stereo) | 2.65 (≈ 7.17 µM) |  |  | Non-toxic | Non-toxic | Non-toxic | Non-toxic |  |  | T/C (P388 [13]): 105; T/C (P388 [14]): 129; T/C (P388 [15]): 98; T/C (P388 [16]): 115
5 | COc1cc2c(cc1OC)[C@H](C)[C@H]1c3cc4c(cc3CCN1C2)OCO4 (relative stereo) | > 100 |  |  |  |  |  |  |  |  | 
6 | COc1cc2c(cc1OC)[C@@H](C)[C@H]1c3cc4c(cc3CCN1C2)OCO4 (relative stereo) | 0.47 (≈ 1.33 µM) |  |  |  |  |  |  |  |  | 
